Source: patent EP0603240B1, “SAFENING HERBICIDAL PYRAZOLYLSULFONYLUREAS” (priority 1991, dated 1993)
Structures can show the parent of a compound that is named as a salt. Where two headings read alike, the source gives them in different places.

What was measured:
corn [1] = experiment: Example 12, Procedure II: Herbicide No. 1 + acetochlor (No. 6) with thirteen antidotes; format: in vivo
Description: (§1) Containers were filled and compacted with a fumigated silt loam top soil to a depth of about 1.3 cm from the top of the container. A first container was designated as an untreated control, a second container was designated as a herbicide control, and a third container was designated as a herbicide + antidote test container. Each of the containers was seeded with a crop species. A measured amount of herbicide dispersed or dissolved in acetone was applied to a measured quantity of soil. To this same quantity of soil treated with herbicide, there was added a measured amount of antidote dispersed or dissolved in acetone. The quantity of soil treated with the herbicide and antidote was thoroughly mixed to incorporate the herbicide and antidote in the soil uniformly. The seed bed in the third container of soil was covered with the soil treated with the herbicide and antidote and the container was leveled. For each test series, the seed beds of the first and second containers were likewise covered by soil layers. the cover layer of the first container was not treated with herbicide or antidote.
(§2) The containers were then placed on a bench in a greenhouse and sub-irrigated as required for the duration of the test. […] Plant response is measured in terms of percent injury. Antidote efficacy is indicated as the difference in plant injury by the herbicide(s) without the antidote and with the antidote.
(§3) This procedure is the same as Procedure I, but modified in the manner that after incorporation of the chemicals (herbicide and antidote) the containers with the covered seedbed were treated with an initial overhead irrigation equivalent to 0.6 cm rainfall, then subsequently sub-irrigated as required on greenhouse benches.
This example was designed to investigate the efficacy of thirteen different antidotes from different classes of chemistry as safeners against compositions of Herbicide No. 1 and acetochlor (Herbicide No. 6) as co-herbicide. Acetochlor is the active ingredient in the commercial herbicides GUARDIAN® and WENNER®.
The test procedure used in this example was Procedure II described above.

corn [2] = experiment: Example 24, Procedure II: Herbicide No. 1 + co-herbicides Nos. 4, 6, 7, 12 with Antidote Nos. 15 and 17-21; format: in vivo; settings: antidote 2.24 kg/ha; highest test rate (0.56 kg/ha) of Herbicide No. 1 + co-herbicide
Description: as §1, §2, §3
In other greenhouse tests, using Procedure II described above, the safening efficacy of Antidote Nos. 15 and 17-21 was evaluated against Herbicide No. 1 in corn in the presence of Giant foxtail (Setaria fabergi) and Velvetleaf (Abutilon theophrasti) as representative annual monocotyledonous and dicotyledonous weeds, respectively.
Test results are shown in Tables 23A and 23B wherein the indicated plant inhibition represents the average of duplicate replications, with observations being made thirteen (13) days after application of the chemicals. Giant foxtail and Velvetleaf are represented by the symbols "GFT" and "VL", respectively. The data in Table 23A show the test results using the antidotes at 2.24 kg/ha, whereas in Table 23B, the antidotal rate was reduced to 0.56 kg/ha.
The tests described in Example 23 were duplicated, but in this example a variety of co-herbicides were included to ascertain the efficacy of the antidotes against combinations of Herbicide No. 1 and Herbicides Nos. 4, 6, 7 and 12 as co-herbicides. Test results are shown in Table 24, wherein the antidote application rate was 2.24 kg/ha.

corn [3] = experiment: Example 25, greenhouse preemergence test: Antidote Nos. 1 and 2 against Herbicide Nos. 1-3; format: in vivo, Corn (Pioneer 3424 variety); settings: no antidote
Description: The chemicals were tested in both preemergence and post-emergence modes of application. The herbicides were prepared and applied as wettable powders; dichlormid was applied as an emulsifiable concentrate, while the naphthalic anhydride was applied as a coating on the corn seed prior to planting.
Test data from the preemergence tests are shown in Table 25A and from the post-emergence tests in Table 25B. In the tables, the concentration of chemicals is shown in terms of active ingredient in grams per hectare (G/ha); concentrations of the naphthalic anhydride were not measured per se, but were present as in conventional, normally-coated applications. Corn injury is shown in terms of percent inhibition of growth.

corn [4] = experiment: Example 6, Procedure II: Herbicide No. 1 + alachlor (No. 7) with antidotes; format: in vivo; settings: Herbicide No.7 4.48 kg/ha alone
Description: as §1, §2, §3
(§4) This example was designed to investigate the antidotal efficacy of a plurality of antidotal compounds against a composition comprising Herbicide No. 1 in combination with Herbicide No. 7 (alachlor). The antidotal compounds used herein were Nos. 1, 2, 7, 13 and 15.
(§5) In this example, Procedure II described above was followed. The data from the tests in this example is shown in Table 6 and represents averages of duplicate replications.

[5] = system: barnyardgrass (Echinochloa crusgalli); experiment: as above; format: in vivo; settings: Herbicide No.7 4.48 kg/ha alone
Description: as §1, §2, §3
(§6) In the series of greenhouse tests described below, for routine screening purposes the herbicide/antidote compositions were tested in crop/weed combinations involving corn as the crop and either or both of the weeds barnyardgrass (Echinochloa crusgalli), a monocotyledonous weed, and velvetleaf (Abutilon theophrasti), a dicotyledonous weed. In the tables below, these weeds are indicated by the symbols "BYG" and "VL", respectively.
as §4, §5

[6] = system: velvetleaf (Abutilon theophrasti); experiment: as above; format: in vivo; settings: Herbicide No.7 4.48 kg/ha alone
Description: as §1, §2, §3, §6, §4, §5

corn [7] = experiment: Example 8, Procedure II: Herbicide No. 1 + butachlor (No. 9) with antidotes; format: in vivo; settings: Herbicide No.9 2.24 kg/ha alone
Description: as §1, §2, §3
(§7) In this test, the efficacy of the same five antidotes used in Examples 6 and 7 was investigated in compositions comprising Herbicide No. 1 and as a co-herbicide, butachlor (Herbicide No. 9), active ingredient in MACHETE® herbicide, a leading commercial rice herbicide. The test procedure used in this example was the same as that in Examples 6 and 7.

[8] = system: barnyardgrass (Echinochloa crusgalli); experiment: as above; format: in vivo; settings: Herbicide No.9 2.24 kg/ha alone
Description: as §1, §2, §3, §6, §7

[9] = system: velvetleaf (Abutilon theophrasti); experiment: as above; format: in vivo; settings: Herbicide No.9 2.24 kg/ha alone
Description: as §1, §2, §3, §6, §7

corn [10] = experiment: Example 7, Procedure II: Herbicide No. 1 + metolachlor (No. 12) with antidotes; format: in vivo; settings: Herbicide No.12 3.36 kg/ha alone
Description: as §1, §2, §3, §5
(§8) The tests in this example followed the same procedure and antidotes used in Example 6. However, Herbicide No. 12 (metolachlor) was used as the co-herbicide with Herbicide No. 1.

[11] = system: barnyardgrass (Echinochloa crusgalli); experiment: as above; format: in vivo; settings: Herbicide No.12 3.36 kg/ha alone
Description: as §1, §2, §3, §6, §5, §8

[12] = system: velvetleaf (Abutilon theophrasti); experiment: as above; format: in vivo; settings: Herbicide No.12 3.36 kg/ha alone
Description: as §1, §2, §3, §6, §5, §8

corn [13] = experiment: Example 20, Procedure II: Herbicide No. 1 + EPTC or ERADICANE EXTRA with Antidote Nos. 5 and 15; format: in vivo
Description: as §1, §2, §3
(§9) This example describes experiments designed to test two generally efficacious antidotal compounds, i.e., Antidote Nos. 5 and 15, against the herbicidal action of the sulfonylurea compound, Herbicide No. 1, and the commercial herbicides EPTC (Herbicide No. 4) and ERADICANE® EXTRA (EPTC + R-29148, Antidote No. 5). Procedure II above was used in conducting these experiments. Formulations of EPTC and ERADICANE EXTRA were applied onto soil cover layers (to be applied over seed beds), followed by sequential pipetting of Herbicide No. 1 and Antidote No. 15. The soil was mixed to homogeneity and spread over the seed beds followed by 0.6 cm of overhead irrigation.

[14] = system: velvetleaf (Abutilon theophrasti); experiment: as above; format: in vivo
Description: as §1, §2, §3, §6, §9

corn [15] = experiment: Example 3, Procedure I: antidotes against Herbicide No. 1; format: in vivo
Description: as §1, §2
(§10) This example details the results of tests with Antidote Nos. 12, 15 and 16 to safen Herbicide No. 1 over application rates ranging from 4.48 kg/ha down to 0.56 kg/ha, in corn in the presence of barnyardgrass. Procedure I described above was used in these tests.

[16] = system: barnyardgrass (Echinochloa crusgalli); experiment: as above; format: in vivo
Description: as §1, §2, §6, §10

[17] = Herbicide No. 4 2.24 kg/ha alone
[18] = Herbicide No. 4 4.48 kg/ha alone
[19] = Herbicide No. 4 6.72 kg/ha alone
[20] = Herb. No. 1 0.56 kg/ha + antidote 0.56 kg/ha
[21] = Herb. No. 1 0.56 kg/ha + antidote 2.24 kg/ha
[22] = Herb. No. 1 0.56 kg/ha + antidote 8.96 kg/ha
[23] = Herb. No. 1 1.12 kg/ha + antidote 0.56 kg/ha
[24] = Herb. No. 1 1.12 kg/ha + antidote 2.24 kg/ha
[25] = Herb. No. 1 1.12 kg/ha + antidote 8.96 kg/ha
[26] = Herb. No. 1 2.24 kg/ha + antidote 0.56 kg/ha
[27] = Herb. No. 1 2.24 kg/ha + antidote 2.24 kg/ha
[28] = Herb. No. 1 2.24 kg/ha + antidote 8.96 kg/ha
[29] = Herb. No. 1 4.48 kg/ha + antidote 0.56 kg/ha
[30] = Herb. No. 1 4.48 kg/ha + antidote 2.24 kg/ha
[31] = Herb. No. 1 4.48 kg/ha + antidote 8.96 kg/ha
[32] = antidote 8.96 kg/ha alone, no herbicide

N#CC(=NOCC1OCCO1)c1ccccc1 [Antidote No. 6, Benzeneacetonitrile, α-{[(1,3-dioxolan-2-yl)methoxy]imino}-]
safening of corn, assessment in words (corn [1]; Herbicide No. 1:Herbicide 6:Antidote 0.14:2.24:2.24 kg/ha): performed at commercial levels | safening of corn, assessment in words (corn [1]; Herbicide No. 1:Herbicide 6:Antidote 0.14:2.24:8.96 kg/ha): performed at commercial levels

CC1COc2ccccc2N1C(=O)C(Cl)Cl (centres unmarked) [Antidote No. 17, 4-(Dichloroacetyl)-3,4-dihydro-3-methyl-2H-1,4-benzoxazine]
safening of corn, assessment in words (corn [2]): failed to safen

O=C(O)COC(c1ccccc1)c1ccccc1 [Antidote No. 18, Acetic acid, (diphenylmethoxy)- sodium salt, hemihydrate]
safening of corn, assessment in words (corn [2]): failed to safen

COC(=O)COC(c1ccccc1)c1ccccc1 [Antidote No. 20, Acetic acid, (diphenylmethoxy)-, methyl ester]
safening of corn, assessment in words (corn [2]): failed to safen

CCOC(=O)c1cnn(C)c1S(=O)(=O)NC(=O)Nc1nc(OC)cc(OC)n1 [Herbicide No. 3, N-[(4,6-dimethoxypyrimidin-2-yl)aminocarbonyl]-4-ethoxycarbonyl-1-methylpyrazole-5-sulfonamide]
inhibition at 0.07 g/ha (corn [3]; Zea mays, pre-emergence, Preemergence, herbicide alone 0.07 G/ha): 19.1% | inhibition at 0.25 g/ha (corn [3]; Zea mays, pre-emergence, Preemergence, herbicide alone 0.25 G/ha, read-out: % Inhibition Corn): 80.9% | inhibition at 0.74 g/ha (corn [3]; Zea mays, pre-emergence, Preemergence, herbicide alone 0.74 G/ha): 80.9% | inhibition at 0.25 g/ha (corn [3]; Zea mays, pre-emergence, preemergence, Herbicide No. 3 0.25 G/ha, read-out: corn injury, percent inhibition of growth): 80.9%

CCc1cccc(CC)c1N(COC)C(=O)CCl [Herbicide No. 7, 2-Chloro-2',6'-diethyl-N-(methoxymethyl)acetanilide, reference compound]
% Injury Corn (corn [4]): 10% | % Injury BYG [5]: 100% | % Injury VL [6]: 25%

CCCCOCN(C(=O)CCl)c1c(CC)cccc1CC [Herbicide No. 9, 2-Chloro-2',6'-diethyl-N-(butoxymethyl)acetanilide, reference compound]
% Injury Corn (corn [7]): 5% | % Injury BYG [8]: 99% | % Injury VL [9]: 25%

CCc1cccc(C)c1N(C(=O)CCl)C(C)COC (centres unmarked) [Herbicide No. 12, 2-Chloro-N-(2-methoxy-1-methylethyl)-6'-ethyl-o-acetotoluidide, reference compound]
% Injury Corn (corn [10]): 0% | % Injury BYG [11]: 100% | % Injury VL [12]: 20%

CCCN(CCC)C(=O)SCC [No. 4]
% Injury Corn (corn [13]; [17]): 0% | % Injury Corn (corn [13]; [18]): 0% | % Injury Corn (corn [13]; [19]): 10% | % Injury VL [14, 17]: 0% | % Injury VL [14, 18]: 0% | % Injury VL [14, 19]: 18%

CC1(C)OC(c2cccs2)CN1C(=O)C(Cl)Cl (centres unmarked) [compound 11]
% Injury Corn (corn [15]; [20]): 15% | % Injury Corn (corn [15]; [21]): 0% | % Injury Corn (corn [15]; [22]): 0% | % Injury Corn (corn [15]; [23]): 5% | % Injury Corn (corn [15]; [24]): 0% | % Injury Corn (corn [15]; [25]): 0% | % Injury Corn (corn [15]; [26]): 30% | % Injury Corn (corn [15]; [27]): 0% | % Injury Corn (corn [15]; [28]): 0% | % Injury Corn (corn [15]; [29]): 50% | % Injury Corn (corn [15]; [30]): 30% | % Injury Corn (corn [15]; [31]): 5% | % Injury Corn (corn [15]; [32]): 15% | % Injury BYG [16, 20]: 70% | % Injury BYG [16, 21]: 20% | % Injury BYG [16, 22]: 0% | % Injury BYG [16, 23]: 80% | % Injury BYG [16, 24]: 15% | % Injury BYG [16, 25]: 0% | % Injury BYG [16, 26]: 75% | % Injury BYG [16, 27]: 30% | % Injury BYG [16, 28]: 0% | % Injury BYG [16, 29]: 80% | % Injury BYG [16, 30]: 80% | % Injury BYG [16, 31]: 50% | % Injury BYG [16, 32]: 0%

N-[(4,6-dimethoxypyridin-2-yl)aminocarbonyl]-3-chloro-4-ethoxycarbonyl-1-methylpyrazole-5-sulfonamide [Herbicide No. 2]
% Inhibition Corn (corn [3]; Preemergence, herbicide alone 0.25 G/ha): 21.7% | % Inhibition Corn (corn [3]; Preemergence, herbicide alone 0.74 G/ha): 36.4% | % Inhibition Corn (corn [3]; Preemergence, herbicide alone 2.5 G/ha): 42.7%
